Assays:
Format in all cases: cell-based
hSTING R232 [1] = molecular target: T1, hSTING R232 (Homo sapiens, UniProt Q86WV6, H232R); assay: 293T-Dual hSTING R232 cells, IRF activation (Quanti-Blue); details: 293T-Dual hSTING R232 cell line, 24 h, OD 620 nm
T1 construct: host or cells: 293T-Dual hSTING R232 cells
Method: (§1) A test compound with a serial of dilution was prepared in complete medium, and 50 μL of the compound were added to the corresponding well, and incubated with the cells at 37° C. incubator for 24 hr.
To determine the effect on interferon regulatory factor (IRF) activation, 20 μL of cell culture supernatant was transferred into a fresh 96-well plate, 150 μL of Quanti-Blue was added to each well and incubated at 37° C. for 25 min. OD at 620 nm was recorded, and EC50 was calculated with 4 parameter logistic equation.

Human STING [2] = molecular target: T2, Human STING (Homo sapiens, UniProt Q86WV6, G230A/H232R/R293Q/R71H); assay: EC50 in THP1-Dual cells, NF-kB reporter (QUANTI-Blue); details: THP1 cell line, 24 h, OD620, read-out: ECs50 NF-kB
T2 construct: host or cells: THP1-Dual cells (human monocytic reporter line)
T2 sequence (Q86WV6 whole entry R71H/G230A/H232R/R293Q): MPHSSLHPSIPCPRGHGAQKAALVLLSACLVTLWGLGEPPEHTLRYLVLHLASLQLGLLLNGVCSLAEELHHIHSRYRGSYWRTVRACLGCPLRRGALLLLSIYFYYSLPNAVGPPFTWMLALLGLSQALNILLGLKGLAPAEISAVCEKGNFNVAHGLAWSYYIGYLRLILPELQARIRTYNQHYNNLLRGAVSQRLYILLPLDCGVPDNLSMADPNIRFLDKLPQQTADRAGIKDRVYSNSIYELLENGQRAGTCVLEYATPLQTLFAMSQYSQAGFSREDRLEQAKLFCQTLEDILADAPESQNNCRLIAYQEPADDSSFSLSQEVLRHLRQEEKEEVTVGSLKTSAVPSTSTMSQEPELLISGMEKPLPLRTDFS
Method: (§2) THP1-Dual cells (obtained from Invivogen) are maintained in RPM11640 medium with 100 µg/ml of Zeocin and 10 µg/ml of blasticidin at 37° C., 5% CO2, compounds were dissolved in sterile PBS (pH7.4) as 20 mM, 0.5×10^6 cells/ml of THP-1 Dual cells were incubated with indicated concentrations of a compound for 24 hours at 37° C., 5% CO2 incubator. QUANTI-Luc and QUANTI-Blue were prepared and used following the manufacturer's instructions. 10 ul of cell culture supernatant were mixed with QUANTI-Luc and immediately measured using Luminometer; 20 ul of supernatant were mixed with QUANTI-Blue, and incubated at 37° C. for 30 minutes, and read at OD620. EC50 was calculated using Prism with 4-parameter dose-response curve fitting (Table 3).

hSTING R232 [3] = molecular target: T1, hSTING R232; assay: 293T-Dual hSTING R232 cells, interferon-β expression (Quanti-Luc); details: 293T-Dual hSTING R232 cell line, 24 h, read-out: IFNb EC50
Method: as §1
To evaluate the effect on interferon-β expression, 20 μL of cell culture supernatant were transferred into a fresh 96-half area-well white plate, 30 μL of Quanti-Luc were added to each well, and luminescence was measured immediately with a luminometer. Four parameter logistic equation was used to calculate EC50 (Table 4).

Human STING [4] = molecular target: T2, Human STING; assay: EC50 in THP1-Dual cells, IRF3 reporter (QUANTI-Luc); details: THP1 cell line, 24 h
Method: as §2

Human STING [5] = molecular target: T2, Human STING; assay: THP1-Dual cell assay, IRF pathway reporter luminescence readout (QUANTI-Luc); details: THP1-Dual cells, 24 h, 30 μM, Table 2
Method: STING pathway activation by the compounds described herein was measured using THP-1 dual cells. These cells are THP1 monocytes that have been modified to be reporters for the IRF pathway, which is activated by STING agonists in these cells.
THP1-Dual cells (obtained from Invivogen) are maintained in growth medium with 100 ug/ml of Zeocin and 10 ug/ml of blasticidin at 37° C., 5% CO2, the cells were passaged every 3 days by inoculating 7×10^5 cells per ml and centrifuged at 1000 rpm for 5 min. Supernatant was removed and THP-1 Dual cells were re-suspended at 5×10^5 cells/ml in fresh pre-warmed growth medium.
[…]. 50 ul of Cell suspension (about 2.5×10^4 cells per well) was added in 384-well plate, which was incubated for 24 hours at 37° C., 5% CO2. QUANTI-Luc was prepared and used following the manufacturer's instructions, 5×10^3 cells per well were seeded in 40 μl medium and incubated overnight. Luminometer was set with the following parameters: 50u of injection, end-point measurement with a 4 second start time and 0.1 second reading time. 10 ul of THP-1 Dual cell culture medium per well was added into a 96-well white (opaque) plate, luminescence was measured and calculated.

T1 sequence (Q86WV6 whole entry H232R): as the sequence (Q86WV6 whole entry R71H/G230A/H232R/R293Q) above, with H71R, A230G, Q293R counted along it

Row | EC50 (hSTING R232 [1]) [µM] | EC50 (Human STING [2]) [µM] | EC50 (hSTING R232 [3]) [µM] | EC50 (Human STING [4]) [µM] | SMILES | Readout Average (Human STING [5]) | Readout n = 1 (Human STING [5]) | Readout n = 2 (Human STING [5])
1 | 9.68 | 29 | 12.8 | 13.9 | B[P@]1(=O)OC[C@H]2O[C@@H](n3cnc4c(N)ncnc43)[C@H](F)[C@@H]2OP(=O)(O)OC[C@H]2O[C@@H](n3cnc4c(N)ncnc43)[C@H](O1)C2F (some centres unmarked) [Compound I1] | – | – | –
2 | 5.43 | 34.7 | 11.2 | 6.27 | B[P@]1(=O)OC[C@H]2O[C@@H](n3cnc4c(N)ncnc43)[C@H](F)[C@@H]2OP(=O)(O)OC[C@H]2O[C@@H](n3cnc4c(N)ncnc43)[C@H](O1)C2F (some centres unmarked) [Compound I2] | – | – | –
3 | 1.2 | 10 | 2.78 | 1.56 | BP1(=O)OCC2O[C@@H](n3cnc4c(N)ncnc43)[C@H](F)[C@@H]2OP(=O)(O)OC[C@H]2O[C@@H](n3cnc4c(=O)[nH]c(N)nc43)[C@H](F)[C@@H]2O1 (stereo partly drawn) [Compound F2, ((2R,3R,3aR,5R,7aS,9R,10R,10aR,14aR)-2-(2-amino-6-oxo-1,6-dihydro-9H-purin-9-yl)-9-(6-amino-9H-purin-9-yl)-3,10-difluoro-12-hydroxy-5,12-dioxidooctahydro-2H,7H-difuro[3,2-d:3′,2′-j][1,3,7,9]tetraoxa[2,8]diphosphacyclododecin-5-yl)trihydroborate] | – | – | –
4 | 15 | 72.6 | 33 | 23 | [BH3-][P+]1(O)OCC2OC(n3cnc4c(N)ncnc43)C(OP(=O)(O)OCC3OC(n4cnc5c(N)ncnc54)C(F)C3O1)C2F (single isomer, unassigned) [Compound K2] | – | – | –
5 | 0.94 | 8.52 | 1.77 | 1.08 | BP1(=O)OC[C@H]2O[C@@H](n3cnc4c(=O)[nH]c(N)nc43)[C@H](F)[C@@H]2OP(=O)(O)OCC2O[C@@H](n3cnc4c(N)ncnc43)[C@H](F)[C@@H]2O1 (stereo partly drawn) [Compound G2, ((2R,3R,3aR,5R,7aR,9R,10R,10aR,14aS)-9-(2-amino-6-oxo-1,6-dihydro-9H-purin-9-yl)-2-(6-amino-9H-purin-9-yl)-3,10-difluoro-12-hydroxy-5,12-dioxidooctahydro-2H,7H-difuro[3,2-d:3′,2′-j][1,3,7,9]tetraoxa[2,8]diphosphacyclododecin-5-yl)trihydroborate] | – | – | –
6 | 0.63 | 6.59 | 2.44 | 1.16 | BP1(=O)OCC2O[C@@H](n3cnc4c(N)ncnc43)[C@H](F)[C@@H]2OP(=O)(O)OC[C@H]2O[C@@H](n3cnc4c(=O)[nH]c(N)nc43)[C@H](F)[C@@H]2O1 (stereo partly drawn) [Compound F1, ((2R,3R,3aR,5R,7aS,9R,10R,10aR,14aR)-2-(2-amino-6-oxo-1,6-dihydro-9H-purin-9-yl)-9-(6-amino-9H-purin-9-yl)-3,10-difluoro-12-hydroxy-5,12-dioxidooctahydro-2H,7H-difuro[3,2-d:3′,2′-j][1,3,7,9]tetraoxa[2,8]diphosphacyclododecin-5-yl)trihydroborate] | – | – | –
7 | 0.41 | 4.3 | 0.92 | 0.63 | BP1(=O)OC[C@H]2O[C@@H](n3cnc4c(=O)[nH]c(N)nc43)[C@H](F)[C@@H]2OP(=O)(O)OCC2O[C@@H](n3cnc4c(N)ncnc43)[C@H](F)[C@@H]2O1 (stereo partly drawn) [Compound G1, ((2R,3R,3aR,5R,7aR,9R,10R,10aR,14aS)-9-(2-amino-6-oxo-1,6-dihydro-9H-purin-9-yl)-2-(6-amino-9H-purin-9-yl)-3,10-difluoro-12-hydroxy-5,12-dioxidooctahydro-2H,7H-difuro[3,2-d:3′,2′-j][1,3,7,9]tetraoxa[2,8]diphosphacyclododecin-5-yl)trihydroborate] | – | – | –
8 | 0.72 | 7.47 | 2.3 | 0.91 | [BH3-][P+]1(O)OCC2OC(n3cnc4c(N)ncnc43)C(OP(=O)(O)OCC3OC(n4cnc5c(N)ncnc54)C(F)C3O1)C2F (single isomer, unassigned) [Compound K1] | – | – | –

More lines, now with the values behind:

Row | SMILES | EC50 (hSTING R232 [1]) [µM] | EC50 (Human STING [2]) [µM] | EC50 (hSTING R232 [3]) [µM] | EC50 (Human STING [4]) [µM] | Readout Average (Human STING [5]) | Readout n = 1 (Human STING [5]) | Readout n = 2 (Human STING [5])
9 | BP1(=O)OC[C@H]2O[C@@H](n3cnc4c(=O)[nH]c(N)nc43)[C@H](F)[C@@H]2OP(=O)(S)OCC2O[C@@H](n3cnc4c(N)ncnc43)[C@H](F)[C@@H]2O1 (single isomer, unassigned) [Compound B2] | 9.82 | 74.6 | 29.1 | 14.7 | – | – | –
10 | BP1(=O)OC[C@H]2O[C@@H](n3cnc4c(=O)[nH]c(N)nc43)[C@H](F)[C@@H]2OP(=O)(S)OCC2O[C@@H](n3cnc4c(N)ncnc43)[C@H](F)[C@@H]2O1 (single isomer, unassigned) [Compound B3] | 0.32 | 5.22 | 2.97 | 0.91 | – | – | –
11 | BP1(=O)OC[C@H]2O[C@@H](n3cnc4c(=O)[nH]c(N)nc43)[C@H](F)[C@@H]2OP(=O)(S)OCC2O[C@@H](n3cnc4c(N)ncnc43)[C@H](F)[C@@H]2O1 (single isomer, unassigned) [Compound B1] | 11.8 | > 100 | 37.5 | 28.2 | – | – | –
12 | BP1(=O)OC[C@H]2O[C@@H](n3cnc4c(NCc5ccccc5)ncnc43)[C@H](OP(=O)(S)OC[C@H]3O[C@@H](n4cnc5c(NCc6ccccc6)ncnc54)[C@H](O)[C@@H]3O1)[C@@H]2O (single isomer, unassigned) [Compound D2] | – | – | – | – | 23960 | 18350 | 29570
13 | BP1(=O)OC[C@H]2O[C@@H](n3cnc4c(N)ncnc43)[C@H](F)[C@@H]2OP(=O)(S)OC[C@H]2O[C@@H](n3cnc4c(N)ncnc43)[C@H](O1)C2F (some centres unmarked) [Mixtures of H1, H2, H3, and H4] | 33.6 | > 100 | 84.4 | > 100 | – | – | –
14 | BP1(=O)OCC2O[C@@H](n3cnc4c(N)ncnc43)[C@H](F)[C@@H]2OP(=O)(S)OC[C@H]2O[C@@H](n3cnc4c(=O)[nH]c(N)nc43)[C@H](F)[C@@H]2O1 (single isomer, unassigned) [Compound C4] | 0.34 | 6.29 | 0.7 | 0.63 | – | – | –
15 | BP1(=O)OCC2O[C@@H](n3cnc4c(N)ncnc43)[C@H](F)[C@@H]2OP(=O)(S)OC[C@H]2O[C@@H](n3cnc4c(=O)[nH]c(N)nc43)[C@H](F)[C@@H]2O1 (single isomer, unassigned) [Compound C1] | 34.3 | 67.1 | 75 | 88.4 | – | – | –
16 | BP1(=O)OC[C@H]2O[C@@H](n3cnc4c(NCc5ccccc5)ncnc43)[C@H](OP(=O)(S)OC[C@H]3O[C@@H](n4cnc5c(NCc6ccccc6)ncnc54)[C@H](O)[C@@H]3O1)[C@@H]2O (single isomer, unassigned) [Compound D4] | – | – | – | – | 510240 | 534040 | 486440
17 | BP1(=O)OCC2O[C@@H](n3cnc4c(N)ncnc43)[C@H](F)[C@@H]2OP(=O)(S)OC[C@H]2O[C@@H](n3cnc4c(=O)[nH]c(N)nc43)[C@H](F)[C@@H]2O1 (single isomer, unassigned) [Compound C2] | 0.23 | 4.93 | 0.43 | 0.43 | – | – | –
18 | BP1(=O)OC[C@H]2O[C@@H](n3cnc4c(=O)[nH]c(N)nc43)[C@H](F)[C@@H]2OP(=O)(S)OCC2O[C@@H](n3cnc4c(N)ncnc43)[C@H](F)[C@@H]2O1 (single isomer, unassigned) [Compound B4] | 0.34 | 7.61 | 2.27 | 0.61 | – | – | –
19 | BP1(=O)OCC2O[C@@H](n3cnc4c(N)ncnc43)[C@H](F)[C@@H]2OP(=O)(S)OC[C@H]2O[C@@H](n3cnc4c(=O)[nH]c(N)nc43)[C@H](F)[C@@H]2O1 (single isomer, unassigned) [Compound C3] | 0.085 | 4.56 | 0.16 | 0.37 | – | – | –
